Assay results from US20140350273A1, “PEDIATRIC USES OF CABAZITAXEL” (AVENTIS PHARMA S.A., priority 2012, published 2014).
Where two headings read alike, the source gives them in different places.

Tested on: human osteosarcoma DM113
Assay type: in vivo
Settings: for Tumor Volume Data (Day 28) Median / ΔT/ΔC %: day 28; for MTTE / T-C: volume endpoint 1600 mm^3
Experimental: The resultant solution contains 10 mg/mL of cabazitaxel. Stock solution of cabazitaxel was then diluted in 0.9% sodium chloride.
This efficacy may be quantified, for example, as changes in tumor volume for each treated (T) and control (C) group, which are calculated for each animal and each day by subtracting the tumor volume on the day of first treatment (staging day) from the tumor volume on the specified observation day. This allows calculating the tumor growth inhibition: ΔT/ΔC=(median delta T/median delta C)×100. Individual tumor volume changes from baseline are thereafter analyzed by a non-parametric two-way ANOVA-TYPE (with factors: group and repeated days) followed by a post-hoc contrasts analysis, with Bonferroni-Holm adjustment for multiplicity, comparing all treated groups to the control group. […] A probability less than 5% (p<0.05) was considered as significant.
Based on the National Cancer Institute (NCl) standards, a ΔT/ΔC≦40% is the minimal level required to declare activity.
This efficacy may also be quantified by the number of tumor regressions observed after therapy. Individual mice reporting a tumor volume ≦50% of the Day 0 measurement for two consecutive measurements over a seven day period were considered partial responders (PR). Individual mice lacking palpable tumors (<4×4 mm^2 for two consecutive measurements over a seven day period) were classified as complete responders (CR); a CR that persisted until study completion was considered a tumor-free survivor (TFS).
Efficacy could also be determined at study completion, using tumor growth delay (T-C) in days, which is calculated using the median time to endpoint (MTTE) value for each treatment (T) group versus control (C). A Log Rank multiple comparison test with Bonferroni-Holm adjustment for multiplicity was applied on individual TTE to compare the treated groups to the control group.
The animals subjected to the experiment are subcutaneously grafted unilaterally with approximately 30 mg of a tumor fragment from low passage pediatric patient-derived tumor xenografts. The animals are implanted with a human patient-derived pediatric tumor xenografted in immuno-compromised mice (Harlan; nu/nu). Several days post tumor implantation, mice are randomized according to their tumor burden to the different groups of treatments and controls. The agents are dosed intravenously at 5.8, 9.3, 15 or 24.2 mg/kg every 4 days for a total of 3 doses (q4d×3) to mice bearing a tumor burden at start of therapy (day 0) ranged from 125 to 250 mm^3.
Beginning Day 0, animals were observed daily and weighed twice weekly using a digital scale; data including individual and mean gram weights (Mean We±SD), mean percent weight change versus Day 0 were recorded for each group. Animal deaths were recorded daily and designated as drug-related (D), technical (T), tumor related (B), or unknown (U) based on weight loss and gross observation; single agent or combination groups reporting a mean >20% for a period of 7 days and/or >10% mortality were considered above the maximum tolerated dose (MTD) for that treatment on the evaluated regimen.
The selected tumor model, DM113, was a low passage patient-derived tumor xenograft derived from an osteosarcoma taken from the lung of a patient.
The following end points were used: • Toxicity was declared at dosages inducing ≧20% body weight loss or ≧10% drug death; • Antitumor efficacy was determined by calculating the ΔT/ΔC value in percent on day 28 post treatment initiation, according to the above mentioned formula; • Individual tumor volume changes from baseline were analyzed by a non-parametric two-way ANOVA-TYPE (with factors: group and repeated day from 3 to 28) followed by a post-hoc contrasts analysis, with Bonferroni-Holm adjustment for multiplicity, comparing all treated groups to the control group on day 28. […] The volume endpoint for T-C calculations was chosen to be 1600 mm^3.

CO[C@H]1C(=O)[C@]2(C)[C@@H](OC)C[C@H]3OC[C@@]3(OC(C)=O)[C@H]2[C@H](OC(=O)c2ccccc2)[C@]2(O)C[C@H](OC(=O)[C@H](O)[C@@H](NC(=O)OC(C)(C)C)c3ccccc3)C(C)=C1C2(C)C [Cabazitaxel, 4α-acetoxy-2α-benzoyloxy-5β,20-epoxy-1β-hydroxy-7β,10β-dimethoxy-9-oxo-11-taxen-13α-yl (2R,3S)-3-tert-butoxycarbonyl-amino-2-hydroxy-3-phenylpropionate]
#CR (5.8 mg/kg i.v./q4dx3): 0/0/0
#PR (5.8 mg/kg i.v./q4dx3): 0/0/0
#TFS (5.8 mg/kg i.v./q4dx3): 0/0/0
Drug Deaths Total (5.8 mg/kg i.v./q4dx3): 0
Tumor Volume Data (Day 28) Median (5.8 mg/kg i.v./q4dx3): 512.5 mm^3
ΔT/ΔC % (5.8 mg/kg i.v./q4dx3): 29.4%
MTTE (5.8 mg/kg i.v./q4dx3): 47 days
T-C (5.8 mg/kg i.v./q4dx3): 16 days
tumor volume changes from baseline, Median +/− MAD (5.8 mg/kg, DAY 3): 58 +/− 21.5
tumor volume changes from baseline, Median +/− MAD (5.8 mg/kg, DAY 8): 63.5 +/− 37
tumor volume changes from baseline, Median +/− MAD (5.8 mg/kg, DAY 11): 63.5 +/− 21.5
tumor volume changes from baseline, Median +/− MAD (5.8 mg/kg, DAY 14): 95 +/− 41.5
tumor volume changes from baseline, Median +/− MAD (5.8 mg/kg, DAY 17): 95 +/− 59
tumor volume changes from baseline, Median +/− MAD (5.8 mg/kg, DAY 21): 158.5 +/− 39.5
tumor volume changes from baseline, Median +/− MAD (5.8 mg/kg, DAY 24): 234 +/− 83.5
tumor volume changes from baseline, Median +/− MAD (5.8 mg/kg, DAY 28): 334.5 +/− 96
tumor volume changes from baseline, Median +/− MAD (5.8 mg/kg, DAY 31): 459.5 +/− 123
tumor volume changes from baseline, Median +/− MAD (5.8 mg/kg, DAY 35): 579.5 +/− 228
tumor volume changes from baseline, Median +/− MAD (5.8 mg/kg, DAY 38): 834.5 +/− 245
tumor volume changes from baseline, Median +/− MAD (5.8 mg/kg, DAY 42): 1097 +/− 248
tumor volume changes from baseline, Median +/− MAD (5.8 mg/kg, DAY 46): 1548.5 +/− 438.5
#CR (9.3 mg/kg i.v./q4dx3): 0/0/0
#PR (9.3 mg/kg i.v./q4dx3): 0/0/0
#TFS (9.3 mg/kg i.v./q4dx3): 0/0/0
Drug Deaths Total (9.3 mg/kg i.v./q4dx3): 0
Weight Nadir % (9.3 mg/kg i.v./q4dx3): −3%
Weight Nadir Day (9.3 mg/kg i.v./q4dx3): 3
Tumor Volume Data (Day 28) Median (9.3 mg/kg i.v./q4dx3): 204 mm^3
ΔT/ΔC % (9.3 mg/kg i.v./q4dx3): 1.8%
MTTE (9.3 mg/kg i.v./q4dx3): >59 days
T-C (9.3 mg/kg i.v./q4dx3): >28 days
tumor volume changes from baseline, Median +/− MAD (9.3 mg/kg, DAY 3): 29.5 +/− 27
tumor volume changes from baseline, Median +/− MAD (9.3 mg/kg, DAY 8): 29.5 +/− 29.5
tumor volume changes from baseline, Median +/− MAD (9.3 mg/kg, DAY 11): 29.5 +/− 29.5
tumor volume changes from baseline, Median +/− MAD (9.3 mg/kg, DAY 14): 9 +/− 9
tumor volume changes from baseline, Median +/− MAD (9.3 mg/kg, DAY 17): 0 +/− 0
tumor volume changes from baseline, Median +/− MAD (9.3 mg/kg, DAY 21): 0 +/− 9
tumor volume changes from baseline, Median +/− MAD (9.3 mg/kg, DAY 24): 0 +/− 31
tumor volume changes from baseline, Median +/− MAD (9.3 mg/kg, DAY 28): 20 +/− 39.5
tumor volume changes from baseline, Median +/− MAD (9.3 mg/kg, DAY 31): 69 +/− 69
tumor volume changes from baseline, Median +/− MAD (9.3 mg/kg, DAY 35): 87.5 +/− 70.5
tumor volume changes from baseline, Median +/− MAD (9.3 mg/kg, DAY 38): 182 +/− 155.5
tumor volume changes from baseline, Median +/− MAD (9.3 mg/kg, DAY 42): 311 +/− 248
tumor volume changes from baseline, Median +/− MAD (9.3 mg/kg, DAY 46): 576 +/− 317.5
#CR (15 mg/kg i.v./q4dx3): 0
#PR (15 mg/kg i.v./q4dx3): 4
#TFS (15 mg/kg i.v./q4dx3): 0
Drug Deaths Total (15 mg/kg i.v./q4dx3): 0
Weight Nadir % (15 mg/kg i.v./q4dx3): −9%
Weight Nadir Day (15 mg/kg i.v./q4dx3): 14
Tumor Volume Data (Day 28) Median (15 mg/kg i.v./q4dx3): 131 mm^3
ΔT/ΔC % (15 mg/kg i.v./q4dx3): −4.4%
MTTE (15 mg/kg i.v./q4dx3): >59 days
T-C (15 mg/kg i.v./q4dx3): >28 days
numbers of PR (15 mg/kg q4d×3 IV): 4/10
tumor volume changes from baseline, Median +/− MAD (15 mg/kg, DAY 3): 13 +/− 13
tumor volume changes from baseline, Median +/− MAD (15 mg/kg, DAY 8): 0 +/− 0
tumor volume changes from baseline, Median +/− MAD (15 mg/kg, DAY 11): −23.5 +/− 23.5
tumor volume changes from baseline, Median +/− MAD (15 mg/kg, DAY 14): −40.5 +/− 30
tumor volume changes from baseline, Median +/− MAD (15 mg/kg, DAY 17): −40.5 +/− 30
tumor volume changes from baseline, Median +/− MAD (15 mg/kg, DAY 21): −40.5 +/− 30
tumor volume changes from baseline, Median +/− MAD (15 mg/kg, DAY 24): −50 +/− 36.5
tumor volume changes from baseline, Median +/− MAD (15 mg/kg, DAY 28): −50 +/− 36.5
tumor volume changes from baseline, Median +/− MAD (15 mg/kg, DAY 31): −53 +/− 36.5
tumor volume changes from baseline, Median +/− MAD (15 mg/kg, DAY 35): −59.5 +/− 29
tumor volume changes from baseline, Median +/− MAD (15 mg/kg, DAY 38): −59.5 +/− 39.5
tumor volume changes from baseline, Median +/− MAD (15 mg/kg, DAY 42): −59.5 +/− 39.5
tumor volume changes from baseline, Median +/− MAD (15 mg/kg, DAY 46): −59.5 +/− 42.5
#CR (24.2 mg/kg i.v./q4dx3): 0
#PR (24.2 mg/kg i.v./q4dx3): 5
#TFS (24.2 mg/kg i.v./q4dx3): 0
Drug Deaths Total (24.2 mg/kg i.v./q4dx3): 0
Weight Nadir % (24.2 mg/kg i.v./q4dx3): −11%
Weight Nadir Day (24.2 mg/kg i.v./q4dx3): 11
Tumor Volume Data (Day 28) Median (24.2 mg/kg i.v./q4dx3): 112 mm^3
ΔT/ΔC % (24.2 mg/kg i.v./q4dx3): −3.6%
MTTE (24.2 mg/kg i.v./q4dx3): >59 days
T-C (24.2 mg/kg i.v./q4dx3): >28 days
numbers of PR (24.2 mg/kg q4d×3 IV): 5/10
tumor volume changes from baseline, Median +/− MAD (24.2 mg/kg, DAY 3): 9.5 +/− 9.5
tumor volume changes from baseline, Median +/− MAD (24.2 mg/kg, DAY 8): 0 +/− 26.5
tumor volume changes from baseline, Median +/− MAD (24.2 mg/kg, DAY 11): −40.5 +/− 34
tumor volume changes from baseline, Median +/− MAD (24.2 mg/kg, DAY 14): −43.5 +/− 28.5
tumor volume changes from baseline, Median +/− MAD (24.2 mg/kg, DAY 17): −40.5 +/− 24.5
tumor volume changes from baseline, Median +/− MAD (24.2 mg/kg, DAY 21): −40.5 +/− 24.5
tumor volume changes from baseline, Median +/− MAD (24.2 mg/kg, DAY 24): −40.5 +/− 40.5
tumor volume changes from baseline, Median +/− MAD (24.2 mg/kg, DAY 28): −40.5 +/− 40.5
tumor volume changes from baseline, Median +/− MAD (24.2 mg/kg, DAY 31): −40.5 +/− 34
tumor volume changes from baseline, Median +/− MAD (24.2 mg/kg, DAY 35): −51 +/− 41.5
tumor volume changes from baseline, Median +/− MAD (24.2 mg/kg, DAY 38): −51 +/− 41.5
tumor volume changes from baseline, Median +/− MAD (24.2 mg/kg, DAY 42): −51 +/− 41.5
tumor volume changes from baseline, Median +/− MAD (24.2 mg/kg, DAY 46): −51 +/− 41.5
antitumor activity compared with docetaxel (conclusion of example 5, 9.3, 15 and 24.2 mg/kg dose levels): higher efficacy than docetaxel
